Measurements: ChEMBL document CHEMBL1201862, “PubChem BioAssay data set” (2004)
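Where inhibition never reached the appropriate level, the endpoint shown equals the highest concentration tested. Otherwise, values were interpolated linearly from a five-concentration, 48-hour dose response in 96-well plates. Abbreviation: GI50, concentration required for 50% inhibition of growth.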 Active and inactive are the calls of the source. No stated cut-off is given here; in the data, active = GI50 up to about 1.1 µM and inactive = higher.

Key:
Assay in all cases: growth of human tumour cells (NCI), 48 h
HOP-62 = test system: HOP-62
TK-10 = test system: TK-10
SF-539 = test system: SF-539
HCT-15 = test system: HCT-15
U-251 = test system: U-251
MOLT-4 = test system: MOLT-4
MDA-MB-231 = test system: MDA-MB-231
SK-MEL-28 = test system: SK-MEL-28
NCI-H460 = test system: NCI-H460
ACHN = test system: ACHN
OVCAR-8 = test system: OVCAR-8
SK-MEL-5 = test system: SK-MEL-5
NCI-H226 = test system: NCI-H226
NCI/ADR-RES = test system: NCI/ADR-RES
SF-295 = test system: SF-295
NCI-H522 = test system: NCI-H522
M14 = test system: M14
CAKI-1 = test system: CAKI-1
HCT-116 = test system: HCT-116
MCF7 = test system: MCF7
SNB-19 = test system: SNB-19
HCC 2998 = test system: HCC 2998
SN12C = test system: SN12C
Malme-3M = test system: Malme-3M
OVCAR-3 = test system: OVCAR-3
K562 = test system: K562
HOP-92 = test system: HOP-92
KM12 = test system: KM12
LOX IMVI = test system: LOX IMVI
786-0 = test system: 786-0
UACC-62 = test system: UACC-62
SW-620 = test system: SW-620
EKVX = test system: EKVX
IGROV-1 = test system: IGROV-1
RXF 393 = test system: RXF 393
CCRF-CEM = test system: CCRF-CEM
RPMI-8226 = test system: RPMI-8226
MDA-N = test system: MDA-N
DU-145 = test system: DU-145
SNB-75 = test system: SNB-75
PC-3 = test system: PC-3
UACC-257 = test system: UACC-257
HT-29 = test system: HT-29
OVCAR-4 = test system: OVCAR-4
OVCAR-5 = test system: OVCAR-5
NCI-H23 = test system: NCI-H23
SR = test system: SR
BT-549 = test system: BT-549
SF-268 = test system: SF-268
COLO 205 = test system: COLO 205
SK-MEL-2 = test system: SK-MEL-2
MDA-MB-435 = test system: MDA-MB-435
SK-OV-3 = test system: SK-OV-3
A549 = test system: A549
UO-31 = test system: UO-31
Hs-578T = test system: Hs-578T
HL-60 = test system: HL-60

Measured: GI50

O=CC12C3CCC1C2C(=O)C3 (configuration not stated)
> 100 µM: HCT-15
inactive: HOP-62 > 100 µM | TK-10 > 100 µM | SF-539 > 100 µM | U-251 > 100 µM | MOLT-4 > 100 µM | MDA-MB-231 > 100 µM | SK-MEL-28 > 100 µM | NCI-H460 > 100 µM | ACHN > 100 µM | OVCAR-8 > 100 µM | SK-MEL-5 > 100 µM | NCI-H226 > 100 µM | NCI/ADR-RES > 100 µM | SF-295 > 100 µM | NCI-H522 > 100 µM | M14 > 100 µM | CAKI-1 > 100 µM | HCT-116 > 100 µM | MCF7 > 100 µM | SNB-19 > 100 µM | HCC 2998 > 100 µM | SN12C > 100 µM | Malme-3M > 100 µM | OVCAR-3 > 100 µM | K562 > 100 µM | HOP-92 > 100 µM | KM12 > 100 µM | LOX IMVI > 100 µM | 786-0 > 100 µM | UACC-62 > 100 µM | SW-620 > 100 µM | EKVX > 100 µM | IGROV-1 > 100 µM | RXF 393 > 100 µM | CCRF-CEM > 100 µM | RPMI-8226 > 100 µM | MDA-N > 100 µM | DU-145 > 100 µM | SNB-75 > 100 µM | PC-3 > 100 µM | UACC-257 > 100 µM | HT-29 > 100 µM | OVCAR-4 > 100 µM | OVCAR-5 > 100 µM | NCI-H23 > 100 µM | SR > 100 µM | BT-549 > 100 µM | SF-268 > 100 µM | COLO 205 > 100 µM | SK-MEL-2 > 100 µM | MDA-MB-435 > 100 µM | SK-OV-3 > 100 µM | A549 > 100 µM

NC(=S)Nc1c(S(N)(=O)=O)cc(S(N)(=O)=O)c(Cl)c1Cl
inactive: HOP-62 > 100 µM | UO-31 > 100 µM | TK-10 > 100 µM | U-251 > 100 µM | Hs-578T > 100 µM | MOLT-4 > 100 µM | MDA-MB-231 > 100 µM | SK-MEL-28 > 100 µM | OVCAR-8 > 100 µM | SK-MEL-5 > 100 µM | NCI-H226 > 100 µM | NCI/ADR-RES > 100 µM | SF-295 > 100 µM | NCI-H522 > 100 µM | M14 > 100 µM | CAKI-1 > 100 µM | HCT-116 > 100 µM | MCF7 > 100 µM | SNB-19 > 100 µM | SN12C > 100 µM | Malme-3M > 100 µM | OVCAR-3 > 100 µM | K562 > 100 µM | HOP-92 > 100 µM | KM12 > 100 µM | LOX IMVI > 100 µM | 786-0 > 100 µM | UACC-62 > 100 µM | SW-620 > 100 µM | EKVX > 100 µM | IGROV-1 > 100 µM | RXF 393 > 100 µM | CCRF-CEM > 100 µM | RPMI-8226 > 100 µM | MDA-N > 100 µM | DU-145 > 100 µM | SNB-75 > 100 µM | PC-3 > 100 µM | UACC-257 > 100 µM | HT-29 > 100 µM | OVCAR-4 > 100 µM | OVCAR-5 > 100 µM | NCI-H23 > 100 µM | BT-549 > 100 µM | SF-268 > 100 µM | COLO 205 > 100 µM | SK-MEL-2 > 100 µM | MDA-MB-435 > 100 µM | SK-OV-3 > 100 µM | A549 > 100 µM | HL-60 > 100 µM
active: SF-539 0.443 µM
> 100 µM: HCT-15
